{"source": "paper PMC11363342", "about": "(ACS Central Science, 2024)", "key": {"GBA3": {"tested_on": "GBA3", "settings": "cited from earlier work"}, "SARS-CoV-2 [1]": {"tested_on": "SARS-CoV-2", "assay": "microbe, parasite or virus in culture", "type": "cell-based", "settings": "Severe acute respiratory syndrome coronavirus 2, Vero C1008, Vero E6 cells, SARS-CoV-2/Leiden0002, n = 3, mean ± SEM; read-out: EC50 (μM), SARS-CoV-2 CPE reduction"}, "[2]": {"tested_on": "recombinant Mus musculus α-Glu II", "assay": "Thermal shift assay (SYPRO orange)", "type": "binding", "settings": "10 μM Mmα-Glu-II with 50 μM inhibitor; unliganded control 49.9 °C"}, "SARS-CoV-2 [3]": {"tested_on": "SARS-CoV-2", "assay": "Viral load reduction assay in ALI-PBEC", "type": "cell-based", "settings": "ALI-PBEC", "procedure": "Thus, ALI-PBEC cells were infected with SARS-CoV-2 (10^5 PFU per insert; estimated MOI ∼0.1) and treated with compounds on the apical side of the cells for 2 h. For uninfected controls, PBS was used instead of virus. The compounds were also present in the basal medium during the whole experiment until 48 hpi, when samples were harvested. […] (Figure 4D).\nALI-PBEC were pretreated with compound in the basal medium for 3 h. Cells were infected with 100 000 PFU of SARS-CoV-2/Leiden0008 per insert (estimated MOI 0.1) with compounds present in the inoculum. After 2 h at 37 °C on a rocking platform, the inoculum was removed and cells were washed three times with warm PBS. Compounds stayed present in the basal medium until 48 h postinfection. At 48 hpi the viral load was determined by plaque assay on a 200 μL apical wash (PBS incubated on the apical side of the insets for 10 min at 37 °C). For assessing cytotoxicity with the CyQuant LDH cytotoxicity assay (Thermo Fisher Scientific), 10 μL of apical wash was diluted 5 times with 40 μL of PBS. A 25 μL volume of this dilution was added to 25 μL of assay reagent and incubated for 30 min at RT in the dark. The plate was fixed and measured at a wavelength of 490 nm (Envision reader, PerkinElmer). For the activity-based probe labeling, the insets were washed one more time with PBS and processed as described previously.[52] Briefly, cells were lysed with 60 μL of potassium phosphate buffer per insert. A fluorescently labeled probe (JJB383) was diluted in MclIvaine buffer (pH 7) to a 10 μM stock and incubated for 5 min on ice. For labeling of the cell lysate, 10 μL of lysate was added to 10 μL of MclIvaine buffer and 5 μL of probe. The lysate was incubated for 30 min at 37 °C before the addition of 10 μL of Laemmli sample buffer (4×). Samples were heated at 95 °C for 5 min and separated in a 10% SDS-PAGE gel. Fluorescence was measured at a wavelength of 625 nm (Cy5) with a Uvitec Alliance Q9 imager (BioSPX). After imaging, the gels were stained with GelCode Blue stain reagent (Thermo Fisher Scientific) and visualized using a Uvitec Essential V6 system to check for equal loading."}, "SARS-CoV-2 S protein": {"tested_on": "SARS-CoV-2 S protein", "type": "cell-based"}, "SARS-CoV-2 [4]": {"tested_on": "SARS-CoV-2", "assay": "Viral load reduction assay in Calu-3 cells, extracellular viral RNA copies by RT-qPCR", "type": "cell-based", "settings": "Calu-3, MOI 1, 16 hpi", "procedure": "Cells were pretreated with 11 and infected with SARS-CoV-2 at a multiplicity of infection (MOI) of 1. At 16 h postinfection (hpi) supernatant was harvested to quantify the infectious virus titer by plaque assay and extracellular viral RNA copies by RT-qPCR. […] This is in line with the expected mechanism of action of the compound that involves viral (structural) protein maturation, likely resulting in reduced infectivity of progeny virus. We then calculated the specific infectivity (defined as the number of infectious particles per viral RNA copy) of treated and untreated samples for the data in Figure 3A,B (Figure 3C). […] None of the treatments caused noticeable cytotoxicity in uninfected treated cells (Figure 3B). Similarly, treatment of infected Calu-3 lung epithelial cells with 11 reduced infectious progeny virus titers by ∼10-fold, while no reduction in extracellular viral RNA copies was observed (Figure S3).\nFigure S2: Cytopathic effect reduction assays on Vero E6 monkey kidney cells and H1299/ACE2 human lung epithelial cells. […]\nplaque assay and RT-qPCR, respectively. Uninfected compound-treated cells were assessed by MTS assay in parallel to measure cytotoxicity of the compounds. n=3 independent experiments. […]"}, "SARS-CoV-2 [5]": {"tested_on": "SARS-CoV-2", "assay": "Virucidal activity assay", "settings": "virus incubated 1 h; compound 11 at 50 μM"}}, "data": [{"molecule": "O=S1(=O)O[C@@H]2[C@H](O)[C@@H](O)[C@H](O)[C@@H](CO)[C@@H]2O1", "note": "[Compound 11, 1,6-epi-cyclophellitol cyclosulfate]", "values": [{"measurement": "inhibition of GBA3", "setting": "GBA3", "value": "does not inhibit"}, {"measurement": "EC50", "setting": "SARS-CoV-2 [1]", "value": "0.48 ± 0.1", "unit": "µM"}, {"measurement": "Tm/°C", "setting": "[2]", "value": 63.3, "unit": "°C"}, {"measurement": "concentration at which the maximum antiviral effect was reached", "setting": "SARS-CoV-2 [3]", "value": 0.5, "unit": "µM"}, {"measurement": "reduction of viral load vs untreated control", "setting": "SARS-CoV-2 [3]; 0.5 μM, 48 hpi", "value": "up to 100 fold"}, {"measurement": "reduction of infectious virus titers", "setting": "SARS-CoV-2 [3]; 0.5–1.6 μM", "value": "up to 2 logs"}, {"measurement": "(processed) S2 in the medium", "setting": "SARS-CoV-2 S protein", "value": "strongly reduced"}, {"measurement": "full-length S protein in the cell lysate", "setting": "SARS-CoV-2 S protein", "value": "minor reduction"}, {"measurement": "∼90 kDa S2 fragment in the cell lysate", "setting": "SARS-CoV-2 S protein", "value": "almost complete disappearance"}, {"measurement": "extracellular viral RNA copies (in words)", "setting": "SARS-CoV-2 [4]", "value": "no reduction"}, {"measurement": "virucidal effect on infectious titer", "setting": "SARS-CoV-2 [5]", "value": "no effect on the infectious titer"}]}]}
